# What was measured:
# [1] = Physicochemical stability test (thermal storage of technical material in ovens for 2 months); conditions: for Stability at different temperatures: 25-70° C.; for Purity after thermal storage: HPLC
# Experimental: Thereafter, technical materials of the two crystalline forms were placed into ovens with temperatures of 25° C., 40° C., 55° C. and 70° C. respectively and left there for 2 months for thermal storage test.
# [2] = Synergistic effect with other herbicides
Compound,Stability at different temperatures [1],Crystalline form after thermal storage ([1]; 25° C.),Purity after thermal storage ([1]; 25° C.) [%],Crystalline form after thermal storage ([1]; 40° C.),Purity after thermal storage ([1]; 40° C.) [%],Crystalline form after thermal storage ([1]; 55° C.),Purity after thermal storage ([1]; 55° C.) [%],Crystalline form after thermal storage ([1]; 70° C.),Purity after thermal storage ([1]; 70° C.) [%],Synergistic effect with one or more listed herbicides [2]
"Cc1nn(C)cc1C(=O)Oc1c(C(=O)c2ccc(C(F)(F)F)cc2S(C)(=O)=O)c(C)nn1C [Crystalline form A of shuangzuocaotong, 1,3-Dimethyl-1H-pyrazole-4-carboxylic acid 4-[2-methanesulfonyl-4-trifluoromethyl-benzoyl]-1,3-dimethyl-1H-pyrazol-5-yl ester]",good stability,Crystalline form A,96.0,Crystalline form A,95.5,Crystalline form A,95.1,Crystalline form A,94.2,
"Cc1nn(C)cc1C(=O)Oc1c(C(=O)c2ccc(C(F)(F)F)cc2S(C)(=O)=O)c(C)nn1C [Crystalline form C of shuangzuocaotong, 1,3-Dimethyl-1H-pyrazole-4-carboxylic acid 4-[2-methanesulfonyl-4-trifluoromethyl-benzoyl]-1,3-dimethyl-1H-pyrazol-5-yl ester]",good stability,Crystalline form C,96.0,Crystalline form C,95.8,Crystalline form C,95.7,Crystalline form C,95.2,obvious synergistic effect

# From patent US11172681B2 (priority 2017, dated 2021)
